Assay: xn = mol fraction of the nth substance listed
Settings: 101 kPa, Liquid

CC(C)CO [2-methyl-1-propanol] + CCCCO
Settings	mass density [kg/m3]	viscosity [mPa·s]
303.15 K, x2 = 0.101	794.896	3.447
303.15 K, x2 = 0.2029	795.74	3.443
303.15 K, x2 = 0.3008	796.558	3.389
303.15 K, x2 = 0.4	797.382	3.313
303.15 K, x2 = 0.5	798.209	3.237
303.15 K, x2 = 0.5999	799.026	3.166
303.15 K, x2 = 0.6999	799.838	3.102
303.15 K, x2 = 0.7993	800.635	3.04
303.15 K, x2 = 0.8995	801.426	2.971
308.15 K, x2 = 0.101	790.969	2.987
308.15 K, x2 = 0.2029	791.819	2.983
308.15 K, x2 = 0.3008	792.643	2.939
308.15 K, x2 = 0.4	793.476	2.871
308.15 K, x2 = 0.5	794.307	2.804
308.15 K, x2 = 0.5999	795.132	2.752
308.15 K, x2 = 0.6999	795.953	2.708
308.15 K, x2 = 0.7993	796.757	2.669
308.15 K, x2 = 0.8995	797.554	2.62
313.15 K, x2 = 0.101	786.977	2.591
313.15 K, x2 = 0.2029	787.84	2.587
313.15 K, x2 = 0.3008	788.67	2.562
313.15 K, x2 = 0.4	789.511	2.511
313.15 K, x2 = 0.5	790.349	2.462
313.15 K, x2 = 0.5999	791.184	2.424
313.15 K, x2 = 0.6999	792.012	2.391
313.15 K, x2 = 0.7993	792.829	2.363
313.15 K, x2 = 0.8995	793.633	2.327
318.15 K, x2 = 0.101	782.93	2.236
318.15 K, x2 = 0.2029	783.806	2.234
318.15 K, x2 = 0.3008	784.646	2.219
318.15 K, x2 = 0.4	785.496	2.191
318.15 K, x2 = 0.5	786.344	2.158
318.15 K, x2 = 0.5999	787.188	2.129
318.15 K, x2 = 0.6999	788.027	2.111
318.15 K, x2 = 0.7993	788.855	2.094
318.15 K, x2 = 0.8995	789.67	2.068
323.15 K, x2 = 0.101	778.816	1.964
323.15 K, x2 = 0.2029	779.704	1.958
323.15 K, x2 = 0.3008	780.558	1.951
323.15 K, x2 = 0.4	781.419	1.931
323.15 K, x2 = 0.5	782.279	1.91
323.15 K, x2 = 0.5999	783.136	1.89
323.15 K, x2 = 0.6999	783.985	1.877
323.15 K, x2 = 0.7993	784.825	1.864
323.15 K, x2 = 0.8995	785.654	1.843
328.15 K, x2 = 0.101	774.633	1.68
328.15 K, x2 = 0.2029	775.537	1.692
328.15 K, x2 = 0.3008	776.405	1.689
328.15 K, x2 = 0.4	777.281	1.684
328.15 K, x2 = 0.5	778.156	1.673
328.15 K, x2 = 0.5999	779.026	1.668
328.15 K, x2 = 0.6999	779.893	1.662
328.15 K, x2 = 0.7993	780.744	1.658
328.15 K, x2 = 0.8995	781.588	1.65
333.15 K, x2 = 0.101	770.368	1.507
333.15 K, x2 = 0.2029	771.292	1.523
333.15 K, x2 = 0.3008	772.177	1.52
333.15 K, x2 = 0.4	773.068	1.511
333.15 K, x2 = 0.5	773.961	1.499
333.15 K, x2 = 0.5999	774.846	1.489
333.15 K, x2 = 0.6999	775.732	1.488
333.15 K, x2 = 0.7993	776.596	1.484
333.15 K, x2 = 0.8995	777.457	1.48
338.15 K, x2 = 0.101	766.021	1.342
338.15 K, x2 = 0.2029	766.966	1.363
338.15 K, x2 = 0.3008	767.871	1.361
338.15 K, x2 = 0.4	768.778	1.357
338.15 K, x2 = 0.5	769.689	1.351
338.15 K, x2 = 0.5999	770.594	1.343
338.15 K, x2 = 0.6999	771.495	1.341
338.15 K, x2 = 0.7993	772.378	1.338
338.15 K, x2 = 0.8995	773.258	1.335
343.15 K, x2 = 0.101	761.578	1.204
343.15 K, x2 = 0.2029	762.548	1.226
343.15 K, x2 = 0.3008	763.474	1.23
343.15 K, x2 = 0.4	764.4	1.228
343.15 K, x2 = 0.5	765.333	1.225
343.15 K, x2 = 0.5999	766.26	1.218
343.15 K, x2 = 0.6999	767.182	1.215
343.15 K, x2 = 0.7993	768.085	1.213
343.15 K, x2 = 0.8995	768.986	1.211
